Data on 2 compounds can be found in US9072660B2, “Topical itraconazole formulations and uses thereof” (THE BOARD OF TRUSTEES OF THE LELAND STANFORD JUNIOR …, priority 2011, dated 2015).

For one data set, the system named is BCCs (Smo). The settings on record: cited from earlier work.
The subject of data set [1] is BCC tumors. Nature of the data set: oral itraconazole on endogenous BCC tumors in PTCH1+/- K14-Cre-ER2 p53fl/fl mice. The format is in vivo.
In data set [2] the test system is ASZ BCC tumor cell line (GLI1 mRNA). Nature of the data set: GLI1 mRNA expression in BCC tumor cell line ASZ. It counts as cell-based, mice. The settings on record: ASZ cells, vs DMSO control.
Data set [3] deals with BSZ BCC tumor cell line (GLI1 mRNA). Nature of the data set: GLI1 mRNA expression in BCC tumor cell line BSZ. It counts as cell-based, mice. The settings on record: BSZ cells, vs DMSO control.
For data set [4], the system named is BCC tumors. The data set can be described thus: oral itraconazole in patients with BCC tumors. It counts as in vivo, humans. The settings on record: oral 400 mg per day for 1 month.
Data set [5] concerns Hedgehog signaling pathway (Smo). The settings on record: cited from earlier work.
The conditions of data set [6]: cited from earlier work.
For data set [7] the following is noted: cited from earlier work. This is another data set of the same source.

Molecules are shown by their SMILES.

With `CC1=C2C[C@H]3[C@@H](CC=C4C[C@@H](O)CC[C@@]43C)[C@@H]2CC[C@]12O[C@@H]1C[C@H](C)CN[C@H]1[C@H]2C` [cyclopamine], the “inhibition of BCCs” value in the data set with BCCs (Smo) (model systems (in vitro and in vivo)) is given as “effectively inhibited”. Besides, in the data set with BCCs (Smo) (systemic use), the side effects result is recorded as “severe side effects”.
Take `CCC(C)n1ncn(-c2ccc(N3CCN(c4ccc(OC[C@H]5CO[C@](Cn6cncn6)(c6ccc(Cl)cc6Cl)O5)cc4)CC3)cc2)c1=O` (relative stereo) [itraconazole, (2R,4S)-rel-1-(butan-2-yl)-4-{4-[4-(4-{[(2R,4S)-2-(2,4-dichlorophenyl)-2-(1H-1,2,4-triazol-1-ylmethyl)-1,3-dioxolan-4-yl]methoxy}phenyl)piperazin-1-yl]phenyl]-4,5-dihydro-1H-1,2,4-triazol-5-one]: the “serum concentrations required for oral anti-BCC effect in mouse vs those reached in humans at regular therapeutic doses (400 mg/day orally)” value with BCC tumors [1] (in vivo mouse studies) is given as “appreciably higher”. Besides, the BCC tumor necrosis entry in the data set with BCC tumors [1] (itraconazole 400 mg/day vs cyclodextrin control treated mice, P<0.02, FIG. 2 left) was “caused BCC tumor necrosis”. The “reduction of BCC tumor size” value in the data set on BCC tumors [1] (oral gavage, 200 mg BID, in 15 days, vs control (cyclodextrin or acetone), P<0.05, FIG. 1) stood at 50%. For the same compound, the “GLI1 mRNA expression” value in data set [2] (0.1 μM), in data set [2] (1.0 μM), in data set [3] (0.1 μM) and in data set [3] (1.0 μM) was “reduced” each time. In addition, the “change of BCC tumor size on average (95% Confidence Interval: 11% to −62%)” value in the data set with BCC tumors [4] is reported as −21%. In data set [5], the “ciliary accumulation of Smo normally caused by HH stimulation” value was “prevents”. In addition, the “inhibition of the HH signaling pathway” value in data set [5] (model cell-based assays, by binding to Smo) is listed as “potently inhibited”. Further, in data set [5] (model cell-based assays), the “expression of the HH target gene GLI1” value is recorded as “decreased”. In addition, the Half-life in data set [6] (in vivo) was 21 h. Moreover, the “Oral Bio-availability” value in data set [6] (with meal) is recorded as 55%. The Protein binding in data set [7] was 99.8%.
